The results in this text go back to ChEMBL document CHEMBL5634176, “Expression of Syo_1.56 SARP Regulator Unveils Potent Elasnin Derivatives with Antibacterial Activity” (J Nat Prod, 2024).

Values after ≈ are worked out from the molar mass of the structure shown. Active and inactive are the calls of the source. The calls are words filed in the database; no cut-off is given here.

The subject of series [1] is Staphylococcus aureus. Description: Antibacterial activity against methicillin sensitive Staphylococcus aureus FDA209P by CLSI protocol based assay. Type of series: functional.
The test system of series [2] is Staphylococcus aureus. Description: Antibacterial activity against methicillin resistant Staphylococcus aureus ATCC BAA-1718 by CLSI protocol based assay. Format: functional.
The subject of series [3] is Escherichia coli. Kind of series: Antibacterial activity against Escherichia coli HO141 incubated for 24 hrs by absorbance based analysis. Format: functional, organism-based. To be noted: HO141, 24 h.
The test system of series [4] is Staphylococcus aureus. Description: Antibacterial activity against methicillin resistant Staphylococcus aureus 92-1191 by CLSI protocol based assay. Format: functional.
Series [5] can be described thus: Cytotoxicity against human HL-60 cells incubated for 48 hrs by WST-8 assay. Type of series: toxicity, cell-based. (Formazan colour is commonly taken as a measure of viable cells.)
Series [6] deals with Staphylococcus aureus. Kind of series: Antibacterial activity against methicillin resistant Staphylococcus aureus ATCC BAA-1717 by CLSI protocol based assay. Format: functional.
The nature of series [7]: Cytotoxicity against human HeLa cells incubated for 48 hrs by WST-8 assay. Format: toxicity, cell-based.
Series [8] is described as follows: Inhibition of metallo-beta lactamase (unknown origin) by nitrocefin method. Also noted: species or system Bacteria.
The test system of series [9] is Staphylococcus aureus. Description: Antibacterial activity against methicillin resistant Staphylococcus aureus NCTC8173 by CLSI protocol based assay. Type of series: functional.
Series [10] concerns Staphylococcus aureus. Kind of series: Antibacterial activity against Staphylococcus aureus 209 incubated for 24 hrs by absorbance based analysis. Type of series: functional, organism-based. To be noted: Staphylococcus aureus, 209, 24 h.
Another series has as its system Plasmodium falciparum. Description: Antimalarial activity against Plasmodium falciparum 3D7 infected in human erythrocytes measured after 72 hrs by absorbance based analysis. Type of series: functional, organism-based. To be noted: 3D7, 72 h.
The test system of series [11] is Escherichia coli. Description: Potentiation of meropenem induced antibacterial activity against drug-resistant Escherichia coli KB366 expressing metallo-betalactamase by agar disk diffusion method. Type of series: functional, organism-based. (In agar diffusion tests the substance spreads into inoculated agar from a disc or well.)

As usually defined, the MIC is the lowest concentration found to suppress growth. A high value points to weaker potency. As usually defined, the IC50 is the point on the concentration scale where inhibition reaches its midpoint. `CCCCc1c(CCCC(C)C)oc(=O)c(CCCC)c1O`: the MIC with Staphylococcus aureus [1] was 15 µg/mL (≈ 48.6 µM); in the series with Staphylococcus aureus [2], 7.5 µg/mL (≈ 24.3 µM); in the series on Staphylococcus aureus [4] it was 15 µg/mL (≈ 48.6 µM); with Staphylococcus aureus [6], 7.7 µg/mL (≈ 25 µM); against Staphylococcus aureus [9] it was 7.5 µg/mL (≈ 24.3 µM). In addition, the IC50 was greater than 10 µg/mL in the series on Escherichia coli [3], greater than 100 µM in series [8], 1.3 µg/mL (≈ 4.21 µM) in the series with Staphylococcus aureus [10] and greater than 10 µg/mL in the series with Plasmodium falciparum. The IC50 at 48 h in series [5] and in series [7] was greater than 10 µg/mL throughout.

Compound `C[C@H](CS)C(=O)N1CCC[C@H]1C(=O)O` [CAPTOPRIL] yielded a half-inhibitory concentration (IC50) in series [8] of 69 µM.

On to `CCCCCC(=O)[C@@H](CCCC)c1oc(=O)c(CCCC)c(O)c1CCCC`, for which the minimal inhibitory concentration (MIC) in the series on Staphylococcus aureus [1], in the series on Staphylococcus aureus [2], against Staphylococcus aureus [4], against Staphylococcus aureus [6] and in the series on Staphylococcus aureus [9] was 5 µg/mL (≈ 12.7 µM) throughout. In addition, the IC50 with Escherichia coli [3] is greater than 10 µg/mL; in [8], 24.1 µM; with Staphylococcus aureus [10], 0.7 µg/mL (≈ 1.78 µM); with Plasmodium falciparum, 2.3 µg/mL (≈ 5.86 µM). Besides, the IC50 at 48 h in [5] and in [7] was greater than 10 µg/mL throughout. Also, the outcome with Escherichia coli [11] was inactive.

Turning to `CCCCCC(=O)[C@@H](CCC(C)C)c1oc(=O)c(CCCC)c(O)c1CCCC`, the minimal inhibitory concentration (MIC) against Staphylococcus aureus [1] is 5 µg/mL (≈ 12.3 µM); against Staphylococcus aureus [2], 5 µg/mL (≈ 12.3 µM); in the series on Staphylococcus aureus [4], 5 µg/mL (≈ 12.3 µM); with Staphylococcus aureus [6] it was 2.5 µg/mL (≈ 6.15 µM); with Staphylococcus aureus [9] it was 2.5 µg/mL (≈ 6.15 µM). In addition, the IC50 with Escherichia coli [3] was greater than 10 µg/mL; in series [8], greater than 100 µM; with Staphylococcus aureus [10], 0.5 µg/mL (≈ 1.23 µM); in the series with Plasmodium falciparum, 6.9 µg/mL (≈ 17 µM). Moreover, the IC50 at 48 h in series [5] and in [7] was 9.7 µg/mL (≈ 23.9 µM) throughout.

Turning to `CCCCCc1oc(=O)c(CCCC)c(O)c1CCCC`, the MIC against Staphylococcus aureus [1], with Staphylococcus aureus [2], with Staphylococcus aureus [4], with Staphylococcus aureus [6] and in the series on Staphylococcus aureus [9] was 15 µg/mL (≈ 50.9 µM) in each case. Besides, the IC50 with Escherichia coli [3] was greater than 10 µg/mL; in [8], greater than 100 µM; in the series with Staphylococcus aureus [10], 1.3 µg/mL (≈ 4.42 µM); in the series with Plasmodium falciparum, 1.9 µg/mL (≈ 6.45 µM). Besides, the IC50 at 48 h in series [5] and in [7] was greater than 10 µg/mL in each case.

For the compound `CCCCc1c([C@H](CCCC)C(=O)CCCC(C)C)oc(=O)c(CCC(C)C)c1O`, the MIC stood at 3 µg/mL (≈ 7.13 µM) in the series with Staphylococcus aureus [1]; 3 µg/mL (≈ 7.13 µM) with Staphylococcus aureus [2]; 6 µg/mL (≈ 14.3 µM) against Staphylococcus aureus [4]; 3 µg/mL (≈ 7.13 µM) with Staphylococcus aureus [6]; 3 µg/mL (≈ 7.13 µM) in the series with Staphylococcus aureus [9]. Also, the half-inhibitory concentration (IC50) in the series on Escherichia coli [3] was greater than 10 µg/mL; in series [8], 15.3 µM; in the series on Staphylococcus aureus [10], 1.1 µg/mL (≈ 2.62 µM); in the series with Plasmodium falciparum, 0.1 µg/mL (≈ 0.238 µM). Moreover, the IC50 at 48 h in [5] and in series [7] was 8.4 µg/mL (≈ 20 µM) throughout. Moreover, in the series with Escherichia coli [11], the result was inactive.

`CCCCCC(=O)[C@@H](CCCC)c1oc(=O)c(CC(C)C)c(O)c1CCCC`: the MIC with Staphylococcus aureus [1] stood at 10 µg/mL (≈ 25.5 µM); in the series with Staphylococcus aureus [2], 10 µg/mL (≈ 25.5 µM); against Staphylococcus aureus [4], 20 µg/mL (≈ 50.9 µM); against Staphylococcus aureus [6], 10 µg/mL (≈ 25.5 µM); in the series on Staphylococcus aureus [9], 10 µg/mL (≈ 25.5 µM). Also, the IC50 was greater than 10 µg/mL in the series with Escherichia coli [3], greater than 100 µM in series [8], 1.6 µg/mL (≈ 4.08 µM) in the series with Staphylococcus aureus [10] and greater than 10 µg/mL in the series on Plasmodium falciparum. For the same compound, the IC50 at 48 h in series [5] and in series [7] was greater than 10 µg/mL throughout.

With `CCCCCCCc1oc(=O)c(CCCC)c(O)c1CCCC`, the MIC amounted to 16 µg/mL (≈ 49.6 µM) with Staphylococcus aureus [1]; 8.1 µg/mL (≈ 25.1 µM) in the series on Staphylococcus aureus [2]; 8.1 µg/mL (≈ 25.1 µM) against Staphylococcus aureus [4]; 16 µg/mL (≈ 49.6 µM) in the series on Staphylococcus aureus [6]; 8.1 µg/mL (≈ 25.1 µM) in the series on Staphylococcus aureus [9]. Further, the IC50 in the series on Escherichia coli [3] is greater than 10 µg/mL; in series [8], greater than 100 µM; with Staphylococcus aureus [10], 2.6 µg/mL (≈ 8.06 µM); in the series with Plasmodium falciparum, 0.1 µg/mL (≈ 0.31 µM). The IC50 at 48 h in [5] and in series [7] was greater than 10 µg/mL throughout.

For the compound `CCCCCC(=O)[C@@H](CCCC)c1oc(=O)c(CCC(C)C)c(O)c1CCCC`, the MIC is 6 µg/mL (≈ 14.8 µM) with Staphylococcus aureus [1]; 3 µg/mL (≈ 7.38 µM) with Staphylococcus aureus [2]; 6 µg/mL (≈ 14.8 µM) in the series with Staphylococcus aureus [4]; 6 µg/mL (≈ 14.8 µM) in the series on Staphylococcus aureus [6]; 3 µg/mL (≈ 7.38 µM) in the series with Staphylococcus aureus [9]. Moreover, the IC50 is greater than 10 µg/mL with Escherichia coli [3], 10.8 µM in series [8], 0.7 µg/mL (≈ 1.72 µM) with Staphylococcus aureus [10] and 1.3 µg/mL (≈ 3.2 µM) with Plasmodium falciparum. The IC50 at 48 h in series [5] was 4.9 µg/mL (≈ 12.1 µM); in [7], 7.3 µg/mL (≈ 18 µM). In addition, the result in the series on Escherichia coli [11] was inactive.

Regarding `CCCCc1c([C@H](CCCC)C(=O)CCC(C)C)oc(=O)c(CCCC)c1O`, the MIC in the series on Staphylococcus aureus [1] amounted to 10 µg/mL (≈ 25.5 µM); against Staphylococcus aureus [2], 5 µg/mL (≈ 12.7 µM); in the series with Staphylococcus aureus [4], 10 µg/mL (≈ 25.5 µM); against Staphylococcus aureus [6], 5 µg/mL (≈ 12.7 µM); in the series with Staphylococcus aureus [9], 5 µg/mL (≈ 12.7 µM). Also, the IC50 in the series with Escherichia coli [3] was greater than 10 µg/mL; in [8], greater than 100 µM; with Staphylococcus aureus [10] it was 1 µg/mL (≈ 2.55 µM); with Plasmodium falciparum it was 9.4 µg/mL (≈ 23.9 µM). Further, the IC50 at 48 h in series [5] and in [7] was greater than 10 µg/mL throughout.

Turning to `CCCCCCc1c(O)c(CCCC)c([C@H](CCCC)C(=O)CCCCC)oc1=O`, the MIC against Staphylococcus aureus [1], in the series with Staphylococcus aureus [2], against Staphylococcus aureus [4], with Staphylococcus aureus [6] and in the series with Staphylococcus aureus [9] was 2.5 µg/mL (≈ 5.94 µM) throughout. The IC50 in the series with Escherichia coli [3] was greater than 10 µg/mL; in series [8], greater than 100 µM; with Staphylococcus aureus [10], 0.8 µg/mL (≈ 1.9 µM); in the series on Plasmodium falciparum, 8 µg/mL (≈ 19 µM). Also, the IC50 at 48 h in [5] is 8.4 µg/mL (≈ 20 µM); in series [7], 7.6 µg/mL (≈ 18.1 µM).

`CCCCc1c([C@H](CCC(C)C)C(=O)CCCC(C)C)oc(=O)c(CCCC)c1O`: the MIC against Staphylococcus aureus [1] was 5 µg/mL (≈ 11.9 µM); in the series on Staphylococcus aureus [2] it was 2.5 µg/mL (≈ 5.94 µM); with Staphylococcus aureus [4], 5 µg/mL (≈ 11.9 µM); against Staphylococcus aureus [6] it was 2.5 µg/mL (≈ 5.94 µM); with Staphylococcus aureus [9] it was 2.5 µg/mL (≈ 5.94 µM). Also, the IC50 with Escherichia coli [3] was greater than 10 µg/mL; in [8], greater than 100 µM; with Staphylococcus aureus [10] it was 0.5 µg/mL (≈ 1.19 µM); with Plasmodium falciparum, 7.7 µg/mL (≈ 18.3 µM). The IC50 at 48 h in [5] worked out at 9.3 µg/mL (≈ 22.1 µM); in [7] it was 8.9 µg/mL (≈ 21.2 µM).

On to `CCCCc1c(O)c(CCC(C)C)c([C@H](CCCC)C(=O)CCCC(C)C)oc1=O`, for which the MIC against Staphylococcus aureus [1], in the series on Staphylococcus aureus [2], with Staphylococcus aureus [4], with Staphylococcus aureus [6] and in the series on Staphylococcus aureus [9] was 2.5 µg/mL (≈ 5.94 µM) in each case. In addition, the half-maximal inhibitory concentration (IC50) in the series with Escherichia coli [3] is greater than 10 µg/mL; in [8], greater than 100 µM; in the series on Staphylococcus aureus [10] it was 0.5 µg/mL (≈ 1.19 µM); in the series with Plasmodium falciparum, 6.3 µg/mL (≈ 15 µM). In addition, the IC50 at 48 h came out at 5.5 µg/mL (≈ 13.1 µM) in [5] and 6.3 µg/mL (≈ 15 µM) in [7].

For `C[C@@H](O)[C@H]1C(=O)N2C(C(=O)O)=C(S[C@@H]3CN[C@H](C(=O)N(C)C)C3)[C@H](C)[C@H]12` [MEROPENEM], the MIC with Staphylococcus aureus [1] was 0.031 µg/mL (≈ 0.0808 µM); against Staphylococcus aureus [2] it was 0.125 µg/mL (≈ 0.326 µM); with Staphylococcus aureus [4] it was 256 µg/mL (≈ 668 µM); in the series with Staphylococcus aureus [6] it was 16 µg/mL (≈ 41.7 µM); in the series on Staphylococcus aureus [9] it was 0.125 µg/mL (≈ 0.326 µM).
